Data: patent US20170333591A9, “ABSORBENT ARTICLE COMPRISING MALODOR REDUCTION COMPOSITIONS” (The Procter & Gamble Company, priority 2014, published 2017)

Test: Log of liquid dish neat product liquid-air partition coefficient
Format: physicochemical
Conditions: not given

Structure (SMILES) | Comment Code: Log of liquid dish neat product liquid-air partition coefficient
CCOC(=O)C=Cc1ccccc1 [Material 400] | K (Log of liquid dish neat product liquid-air partition coefficient greater than or equal to 7)
CC1(C)C2CCC3(C2)C1C(=O)CCC3(C)C (stereo not shown) [Material 1149] | K (Log of liquid dish neat product liquid-air partition coefficient greater than or equal to 7)
C[C@@H]1CC[C@H]2C(C)(C)[C@H]3C[C@@]12CC1OC(C)(C)OC13C (stereo partly shown) [Material 674] | K (Log of liquid dish neat product liquid-air partition coefficient greater than or equal to 7)
O=C1CCCC=CCCCCCCCCCC1 [Material 788] | K (Log of liquid dish neat product liquid-air partition coefficient greater than or equal to 7)
C/C=C1/CC2CC1C1CCC(=O)OC21 (stereo not shown) [Material 353] | K (Log of liquid dish neat product liquid-air partition coefficient greater than or equal to 7)
CC1=CCCC2(C)CCC(C(C)(C)O)CC12 (stereo not shown) [Material 712] | K (Log of liquid dish neat product liquid-air partition coefficient greater than or equal to 7)
CC(=O)OC(C)CC(C)(C)c1ccccc1 (stereo not shown) [Material 1134] | K (Log of liquid dish neat product liquid-air partition coefficient greater than or equal to 7)
CC=Cc1ccc(OCC)c(O)c1 [Material 1112] | K (Log of liquid dish neat product liquid-air partition coefficient greater than or equal to 7)
C=C[C@](C)(O)CCC=C(C)C [Material 888] | K (Log of liquid dish neat product liquid-air partition coefficient greater than or equal to 7)
CC(=O)[C@@]1(C)CC2=C(CCCC2(C)C)C[C@@H]1C [Material 215] | K (Log of liquid dish neat product liquid-air partition coefficient greater than or equal to 7)
CCCC(=O)OC1CC2CC1C1CC=CC21 (stereo not shown) [Material 484] | K (Log of liquid dish neat product liquid-air partition coefficient greater than or equal to 7)
O=C(O)CCc1ccccc1 [Material 255] | K (Log of liquid dish neat product liquid-air partition coefficient greater than or equal to 7)
CC1C(=O)CC2(C)CCCC(C)(C)C23CC13 (stereo not shown) [Material 804] | K (Log of liquid dish neat product liquid-air partition coefficient greater than or equal to 7)
C/C=C\c1ccc(O)c(OC)c1 [Material 528] | K (Log of liquid dish neat product liquid-air partition coefficient greater than or equal to 7)
C=C(C)C(=O)OCCc1ccccc1 [Material 971] | K (Log of liquid dish neat product liquid-air partition coefficient greater than or equal to 7)
CC(C)C1CCC(CO)CC1 (stereo not shown) [Material 133] | K (Log of liquid dish neat product liquid-air partition coefficient greater than or equal to 7)

Same assay, conditions: Comment Code letters K and/or L

Structure (SMILES) | Log of liquid dish neat product liquid-air partition coefficient (Comment Code K/L)
CC1(C)C2CCC3(C2)C1C(=O)CCC3(C)C (stereo not shown) [Material 1149] | K (Log of liquid dish neat product liquid-air partition coefficient greater than or equal to 7)

Same assay, conditions: code letter within the Comment Code cell

Structure (SMILES) | Log of liquid dish neat product liquid-air partition coefficient (Comment Code K/L)
C=CCc1ccc(O)c(OC)c1 [Material 375] | K (Log of liquid dish neat product liquid-air partition coefficient greater than or equal to 7)
C/C=C1/CC2CC1C1CCC(=O)OC21 (stereo not shown) [Material 353] | K (Log of liquid dish neat product liquid-air partition coefficient greater than or equal to 7)
c1ccc(Oc2ccccc2)cc1 [Material 428] | K (Log of liquid dish neat product liquid-air partition coefficient greater than or equal to 7)
CC(=O)c1ccc2ccccc2c1 [Material 120] | K (Log of liquid dish neat product liquid-air partition coefficient greater than or equal to 7)
CC(C)=CCCC(C)=CCCc1ccncc1 [Material 135] | K (Log of liquid dish neat product liquid-air partition coefficient greater than or equal to 7)
CCCCCCCCCCCCOC(C)=O [Material 175] | K (Log of liquid dish neat product liquid-air partition coefficient greater than or equal to 7)
c1ccc(Cc2ccccc2)cc1 [Material 429] | K (Log of liquid dish neat product liquid-air partition coefficient greater than or equal to 7)
CC(=O)[C@@]1(C)CC2=C(CCCC2(C)C)C[C@@H]1C [Material 215] | K (Log of liquid dish neat product liquid-air partition coefficient greater than or equal to 7)
CC(C)=CCCC(C)=CCCC(C)=CCO [Material 369] | K (Log of liquid dish neat product liquid-air partition coefficient greater than or equal to 7)
CCCC(=O)OC1CC2CC1C1CC=CC21 (stereo not shown) [Material 484] | K (Log of liquid dish neat product liquid-air partition coefficient greater than or equal to 7)
CC(C)C1OC2(CCCC2)OCC1(C)C (stereo not shown) [Material 25] | K (Log of liquid dish neat product liquid-air partition coefficient greater than or equal to 7)
O=C1CCCCCCCCCCCCCCCO1 [Material 277] | K (Log of liquid dish neat product liquid-air partition coefficient greater than or equal to 7)
CCC(=O)CCC1C(C)=CCCC1(C)C (stereo not shown) [Material 293] | K (Log of liquid dish neat product liquid-air partition coefficient greater than or equal to 7)
CCCCCCCCCCCC(=O)OCCC(C)C [Material 238] | K (Log of liquid dish neat product liquid-air partition coefficient greater than or equal to 7)
CC1=CC2CC(C=O)C1CC2C(C)C (stereo not shown) [Material 142] | K (Log of liquid dish neat product liquid-air partition coefficient greater than or equal to 7)
C=CC(=C)CCCC(C)(C)O [Material 34] | K (Log of liquid dish neat product liquid-air partition coefficient greater than or equal to 7)

Same assay, conditions: code letters K/L of the Comment Code

Structure (SMILES) | Log of liquid dish neat product liquid-air partition coefficient (Comment Code)
CC(=O)OC(C)CC/C=C(\C)CCC=C(C)C (stereo not shown) [Material 890] | K (Log of liquid dish neat product liquid-air partition coefficient greater than or equal to 7)
COC1CC2CC1C1CC(C=O)CC21 (stereo not shown) [Material 1026] | K (Log of liquid dish neat product liquid-air partition coefficient greater than or equal to 7)
C[C@@H]1CC[C@H]2C(C)(C)[C@H]3C[C@@]12CC1OC(C)(C)OC13C (stereo partly shown) [Material 674] | K (Log of liquid dish neat product liquid-air partition coefficient greater than or equal to 7)
CC1=CC2C(C(C)C)CCC(C)(O)C2CC1 (stereo not shown) [Material 1046] | K (Log of liquid dish neat product liquid-air partition coefficient greater than or equal to 7)
O=C1CCCC=CCCCCCCCCCC1 [Material 788] | K (Log of liquid dish neat product liquid-air partition coefficient greater than or equal to 7)
CCCCCCCCCCC=CC=O [Material 930] | K (Log of liquid dish neat product liquid-air partition coefficient greater than or equal to 7)
COCCOC(C)OCc1ccccc1 (stereo not shown) [Material 768] | K (Log of liquid dish neat product liquid-air partition coefficient greater than or equal to 7)
CC1=CCCC2(C)CCC(C(C)(C)O)CC12 (stereo not shown) [Material 712] | K (Log of liquid dish neat product liquid-air partition coefficient greater than or equal to 7)
CCCCCCCCCC=CC=O [Material 806] | K (Log of liquid dish neat product liquid-air partition coefficient greater than or equal to 7)
CC1CC(C)(c2ccccc2)CO1 (stereo not shown) [Material 1006] | K (Log of liquid dish neat product liquid-air partition coefficient greater than or equal to 7)
CC(C)c1ccc(CCC=O)cc1 [Material 826] | K (Log of liquid dish neat product liquid-air partition coefficient greater than or equal to 7)
CCCCOC(=O)C(C)OC(=O)CCC (stereo not shown) [Material 595] | K (Log of liquid dish neat product liquid-air partition coefficient greater than or equal to 7)
CC(C)=CCC/C(C)=C/CO [Material 1082] | K (Log of liquid dish neat product liquid-air partition coefficient greater than or equal to 7)
CC(C)c1cccc(C(C)CC=O)c1 (stereo not shown) [Material 914] | K (Log of liquid dish neat product liquid-air partition coefficient greater than or equal to 7)
CC1(C)C2CC=C(CCC=O)C1C2 (stereo not shown) [Material 781] | K (Log of liquid dish neat product liquid-air partition coefficient greater than or equal to 7)
OCCc1ccccc1 [Material 955] | K (Log of liquid dish neat product liquid-air partition coefficient greater than or equal to 7)
COc1ccc(CC(C)C=O)cc1 (stereo not shown) [Material 586] | K (Log of liquid dish neat product liquid-air partition coefficient greater than or equal to 7)
C=C(C)C1CC=C(C)C(OC(C)=O)C1 (stereo not shown) [Material 577] | K (Log of liquid dish neat product liquid-air partition coefficient greater than or equal to 7)
CC1C(=O)CC2(C)CCCC(C)(C)C23CC13 (stereo not shown) [Material 804] | K (Log of liquid dish neat product liquid-air partition coefficient greater than or equal to 7)
C=C(C)C1CC=C(C=O)CC1 (stereo not shown) [Material 946] | K (Log of liquid dish neat product liquid-air partition coefficient greater than or equal to 7)
CC1=CC2C(C(C)C)CCC(C)(O)C2CC1 (stereo not shown) [Material 716] | K (Log of liquid dish neat product liquid-air partition coefficient greater than or equal to 7)
C=C1CCCC(C)(C)C2C=C(C)CCC12 (stereo not shown) [Material 707] | K (Log of liquid dish neat product liquid-air partition coefficient greater than or equal to 7)
